Results: ChEMBL document CHEMBL1144434, “Structure-activity relationships within a series of caspase inhibitors. Part 2: Heterocyclic warheads” (Bioorg Med Chem Lett, 2005)

Legend:
Caspase-3 (Homo sapiens) = target: T1, Caspase-3 (Homo sapiens) (UniProt P42574); experiment: Binding affinity against Caspase-3
T1 sequence (whole entry): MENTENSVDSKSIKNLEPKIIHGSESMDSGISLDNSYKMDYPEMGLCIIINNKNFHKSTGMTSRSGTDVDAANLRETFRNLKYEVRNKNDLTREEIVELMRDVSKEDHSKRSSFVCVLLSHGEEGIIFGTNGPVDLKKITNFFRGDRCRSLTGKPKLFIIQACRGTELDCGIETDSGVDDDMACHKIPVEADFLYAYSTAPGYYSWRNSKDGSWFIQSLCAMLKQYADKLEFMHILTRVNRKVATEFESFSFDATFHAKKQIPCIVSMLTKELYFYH

Caspase-6 (Homo sapiens) = target: T2, Caspase-6 (Homo sapiens) (UniProt P55212); experiment: Binding affinity against Caspase-6
T2 sequence (whole entry): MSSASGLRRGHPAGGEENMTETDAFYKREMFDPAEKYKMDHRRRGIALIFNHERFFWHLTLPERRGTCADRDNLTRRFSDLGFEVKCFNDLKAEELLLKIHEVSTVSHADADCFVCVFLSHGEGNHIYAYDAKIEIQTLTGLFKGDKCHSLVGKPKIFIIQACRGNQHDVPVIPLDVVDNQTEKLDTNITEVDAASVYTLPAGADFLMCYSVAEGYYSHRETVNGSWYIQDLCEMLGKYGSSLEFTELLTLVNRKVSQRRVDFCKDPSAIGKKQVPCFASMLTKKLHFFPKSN

Caspase-8 (Homo sapiens) = Caspase-8 (Homo sapiens) (UniProt Q14790); experiment: Binding affinity against Caspase-8
Sequence of Caspase-8 (Homo sapiens) (Q14790 217-374 limits assumed): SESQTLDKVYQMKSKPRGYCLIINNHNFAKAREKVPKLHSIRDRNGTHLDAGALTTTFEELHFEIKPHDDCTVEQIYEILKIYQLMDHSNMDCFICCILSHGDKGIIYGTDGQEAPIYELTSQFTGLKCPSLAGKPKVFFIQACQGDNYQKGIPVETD
Sequence of Caspase-8 (Homo sapiens) (Q14790 385-479 limits assumed): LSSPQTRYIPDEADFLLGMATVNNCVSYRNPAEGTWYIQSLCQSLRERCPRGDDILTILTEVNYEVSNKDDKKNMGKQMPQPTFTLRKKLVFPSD

Caspase-1 (Mus musculus) = target: T3, Caspase-1 (Mus musculus) (UniProt P29452); experiment: Binding affinity against mouse Caspase-1
T3 sequence (whole entry): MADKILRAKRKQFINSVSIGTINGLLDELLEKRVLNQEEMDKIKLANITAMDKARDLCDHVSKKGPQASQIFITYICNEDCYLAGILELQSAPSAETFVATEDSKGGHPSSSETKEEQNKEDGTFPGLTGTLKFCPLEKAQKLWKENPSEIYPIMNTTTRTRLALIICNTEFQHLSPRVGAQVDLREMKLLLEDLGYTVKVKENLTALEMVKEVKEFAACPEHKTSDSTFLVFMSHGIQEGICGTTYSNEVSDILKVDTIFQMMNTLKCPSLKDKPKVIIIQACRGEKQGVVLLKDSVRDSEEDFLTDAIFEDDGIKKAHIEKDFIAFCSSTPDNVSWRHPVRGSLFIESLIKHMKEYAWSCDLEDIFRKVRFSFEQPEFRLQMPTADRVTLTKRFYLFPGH

Jurkat = experiment: Inhibitory concentration for cellular activity in jurkat assay; type: functional, cell-based; conditions: Homo sapiens

| k3/ki (Caspase-3 (Homo sapiens)) | k3/ki (Caspase-6 (Homo sapiens)) | k3/ki (Caspase-8 (Homo sapiens)) | k3/ki (Caspase-1 (Mus musculus)) | IC50 (Jurkat) | Structure (SMILES) |
| --- | --- | --- | --- | --- | --- |
| 2010 1/m/s | 0 1/m/s | 218 1/m/s | 200 1/m/s | > 200 µM | CC(C)[C@H](NC(=O)COc1cccc2ccccc12)C(=O)N[C@@H](CC(=O)O)C(=O)CSc1nc(-c2ccccc2)c(-c2ccccc2)o1 |
| 343 1/m/s | 0 1/m/s | 4 1/m/s | 83 1/m/s | > 200 µM | CC(C)[C@H](NC(=O)COc1cccc2ccccc12)C(=O)N[C@@H](CC(=O)O)C(=O)COc1ncnc2ccccc12 |
| 35500 1/m/s | 509 1/m/s | 295 1/m/s | 9400 1/m/s | 46 µM | CC(C)[C@H](NC(=O)COc1cccc2ccccc12)C(=O)N[C@@H](CC(=O)O)C(=O)COc1cc(C(F)(F)F)n(C)n1 |
| 3570 1/m/s | 0 1/m/s | 0 1/m/s | 202 1/m/s | > 200 µM | CC(C)[C@H](NC(=O)COc1cccc2ccccc12)C(=O)N[C@@H](CC(=O)O)C(=O)CSc1nc2ccccc2s1 |
| 71100 1/m/s | 23900 1/m/s | 2270 1/m/s | 7570 1/m/s | 28 µM | CC(C)[C@H](NC(=O)COc1cccc2ccccc12)C(=O)N[C@@H](CC(=O)O)C(=O)COc1cc(C(F)(F)F)nn1-c1ccccc1 |
| 4800 1/m/s | 110 1/m/s | 276 1/m/s | 280 1/m/s | 150 µM | CC(C)[C@H](NC(=O)COc1cccc2ccccc12)C(=O)N[C@@H](CC(=O)O)C(=O)CSc1nnc(-c2ccccc2)o1 |
| 2260 1/m/s | 221 1/m/s | 293 1/m/s | 180 1/m/s | > 200 µM | CC(C)[C@H](NC(=O)COc1cccc2ccccc12)C(=O)N[C@@H](CC(=O)O)C(=O)CSc1nncn1C |
| 38100 1/m/s | 975 1/m/s | 3060 1/m/s | 1190 1/m/s | 102 µM | CC(C)[C@H](NC(=O)COc1cccc2ccccc12)C(=O)N[C@@H](CC(=O)O)C(=O)CSc1nc(-c2ccccc2)no1 |
| 3350 1/m/s | 96 1/m/s | 8 1/m/s | 693 1/m/s | > 200 µM | CC(C)[C@H](NC(=O)COc1cccc2ccccc12)C(=O)N[C@@H](CC(=O)O)C(=O)COc1cc2ccccc2cn1 |
| 11500 1/m/s | 570 1/m/s | 212 1/m/s | 1200 1/m/s | > 200 µM | CC(C)[C@H](NC(=O)COc1cccc2ccccc12)C(=O)N[C@@H](CC(=O)O)C(=O)CSc1nccn1C |
| 19200 1/m/s | 224 1/m/s | 0 1/m/s | 400 1/m/s | 153 µM | CC(C)[C@H](NC(=O)COc1cccc2ccccc12)C(=O)N[C@@H](CC(=O)O)C(=O)CSc1nnnn1-c1ccccc1 |
| 1310 1/m/s | 462 1/m/s | 177 1/m/s | 360 1/m/s | 106 µM | CC(C)[C@H](NC(=O)COc1cccc2ccccc12)C(=O)N[C@@H](CC(=O)O)C(=O)COc1nccc2ccccc12 |
| 7480 1/m/s | 903 1/m/s | 367 1/m/s | 1330 1/m/s | > 200 µM | Cc1cc(OCC(=O)[C@H](CC(=O)O)NC(=O)[C@@H](NC(=O)COc2cccc3ccccc23)C(C)C)nc(C)n1 |
| 979 1/m/s | 0 1/m/s | 9 1/m/s | 67 1/m/s | > 200 µM | CC(C)[C@H](NC(=O)COc1cccc2ccccc12)C(=O)N[C@@H](CC(=O)O)C(=O)COc1ccc2ccccc2n1 |
| 4360 1/m/s | 140 1/m/s | 39 1/m/s | 1260 1/m/s | > 200 µM | CC(C)[C@H](NC(=O)COc1cccc2ccccc12)C(=O)N[C@@H](CC(=O)O)C(=O)COc1cccc2cccnc12 |
| 169000 1/m/s | 44000 1/m/s | 18200 1/m/s | 45400 1/m/s | 137 µM | CC(C)[C@H](NC(=O)COc1cccc2ccccc12)C(=O)N[C@@H](CC(=O)O)C(=O)COn1nnc2ccccc2c1=O |

| k3/ki (Caspase-3 (Homo sapiens)) | k3/ki (Caspase-6 (Homo sapiens)) | k3/ki (Caspase-8 (Homo sapiens)) | k3/ki (Caspase-1 (Mus musculus)) | IC50 (Jurkat) | Structure (SMILES) |
| --- | --- | --- | --- | --- | --- |
| 114000 1/m/s | 5150 1/m/s | 3200 1/m/s | 24800 1/m/s | 37 µM | CC(C)[C@H](NC(=O)COc1cccc2ccccc12)C(=O)N[C@@H](CC(=O)O)C(=O)COc1ccnc(C(F)(F)F)n1 |
| 5240 1/m/s | 83 1/m/s | 0 1/m/s | 5480 1/m/s | 190 µM | Cc1nnc(SCC(=O)[C@H](CC(=O)O)NC(=O)[C@@H](NC(=O)COc2cccc3ccccc23)C(C)C)s1 |
| 2300 1/m/s | 228 1/m/s | 231 1/m/s | 186 1/m/s | > 200 µM | CC(C)[C@H](NC(=O)COc1cccc2ccccc12)C(=O)N[C@@H](CC(=O)O)C(=O)CSC1=NCCS1 |
| 0 1/m/s | 0 1/m/s | 0 1/m/s | 0 1/m/s | > 200 µM | CC(C)[C@H](NC(=O)COc1cccc2ccccc12)C(=O)N[C@@H](CC(=O)O)C(=O)COc1ccncn1 |
| 283 1/m/s | 0 1/m/s | 0 1/m/s | 10 1/m/s |  | Cc1cc(C)nc(OCC(=O)[C@H](CC(=O)O)NC(=O)[C@@H](NC(=O)COc2cccc3ccccc23)C(C)C)n1 |
| 401 1/m/s | 17 1/m/s | 0 1/m/s | 115 1/m/s | > 200 µM | CC(C)[C@H](NC(=O)COc1cccc2ccccc12)C(=O)N[C@@H](CC(=O)O)C(=O)CSc1nc[nH]n1 |
| 34400 1/m/s | 2150 1/m/s | 6510 1/m/s | 3630 1/m/s | > 200 µM | CC(C)[C@H](NC(=O)COc1cccc2ccccc12)C(=O)N[C@@H](CC(=O)O)C(=O)CSc1nnnn1C |
| 0 1/m/s | 0 1/m/s | 0 1/m/s | 0 1/m/s | > 200 µM | CC(C)[C@H](NC(=O)COc1cccc2ccccc12)C(=O)N[C@@H](CC(=O)O)C(=O)CSc1nccc(C(F)(F)F)n1 |
| 958 1/m/s | 0 1/m/s | 2 1/m/s | 41 1/m/s | > 200 µM | CC(C)[C@H](NC(=O)COc1cccc2ccccc12)C(=O)N[C@@H](CC(=O)O)C(=O)COc1nc2ccccc2[nH]1 |
| 21800 1/m/s | 220 1/m/s | 279 1/m/s | 3670 1/m/s | > 200 µM | CC(C)c1cc(OCC(=O)[C@H](CC(=O)O)NC(=O)[C@@H](NC(=O)COc2cccc3ccccc23)C(C)C)no1 |
| 2730 1/m/s | 0 1/m/s | 0 1/m/s | 217 1/m/s | > 200 µM | CC(C)[C@H](NC(=O)COc1cccc2ccccc12)C(=O)N[C@@H](CC(=O)O)C(=O)CSc1nc(-c2ccccc2)cs1 |
| 348 1/m/s | 0 1/m/s | 0 1/m/s | 0 1/m/s |  | CC(C)[C@H](NC(=O)COc1cccc2ccccc12)C(=O)N[C@@H](CC(=O)O)C(=O)CSc1ccccn1 |
| 0 1/m/s |  | 0 1/m/s | 0 1/m/s | > 200 µM | CC(C)[C@H](NC(=O)COc1cccc2ccccc12)C(=O)N[C@@H](CC(=O)O)C(=O)CSc1nc2ccccc2o1 |
| 906 1/m/s | 143 1/m/s | 107 1/m/s | 273 1/m/s | 161 µM | CC(C)[C@H](NC(=O)COc1cccc2ccccc12)C(=O)N[C@@H](CC(=O)O)C(=O)COc1[nH]cnc2nncc1-2 |
| 144000 1/m/s | 5800 1/m/s | 6340 1/m/s | 42500 1/m/s | 71 µM | COC(=O)c1cc(OCC(=O)[C@H](CC(=O)O)NC(=O)[C@@H](NC(=O)COc2cccc3ccccc23)C(C)C)no1 |
